Assay results: patent US11384075B2, “Quinolinone compounds” (Janssen Pharmaceutica NV, priority 2017, dated 2022)

Columns and labels:
[1] = biological target: T1, NIH/3T3 cells overexpressing FGFR3 V555M-TACC3 fusion protein (Homo sapiens, UniProt P22607, V555M, cells depend on it); test: NIH/3T3 FGFR3 V555M-TACC3 cell proliferation assay; format: cell-based; conditions: 72-hr incubation, CellTiter Glo, starting with 10 μM; read-out: NIH/3T3 FGFR3 V555M-TACC3 CTG (IC50)
T1 construct: NIH/3T3 FGFR3 V555M-TACC3 CTG (IC50); other: 72-hr incubation, CellTiter Glo, starting with 10 μM; fused on or other part: Q9Y6A5 (Transforming acidic coiled-coil-containing protein 3)
How it was run: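 NIH/3T3 cells overexpressing FGFR3 V555M-TACC3 fusion, 30,000/well in DMEM/10% FBS, treated for 72 h at 37 °C with 9 doses (4× dilutions from 10 μM top, 0.1% DMSO). CellTiter-Glo luminescence normalised to % survival; IC50, pIC50 and Hill slope from concentration-response fits.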

[2] = biological target: T2, human FGFR3 wild type enzyme (cytoplasmic domain) (Homo sapiens, UniProt P22607); test: FGFR3 wild type mobility shift assay (enzymatic assay); format: biochemical; conditions: 75 μM ATP, 50 minutes at 30° C., Caliper EZ reader II
T2 construct: human FGFR3 wild type enzyme (cytoplasmic domain, from Carna Biosciences); purchased Carna Biosciences
How it was run: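 Cytoplasmic domain of human wild-type FGFR3 (0.04 ng/μL) with 75 μM ATP and 1 μM FL-peptide 30, pH 7.4 HEPES/MgCl2 buffer, 1% DMSO, 50 min at 30 °C, EDTA-stopped. Substrate-product conversion read by mobility shift. IC50, pIC50 and Hill slope from 10-point 4-fold dilutions starting at 10 μM.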

T2 sequence (P22607 397-806 limits assumed): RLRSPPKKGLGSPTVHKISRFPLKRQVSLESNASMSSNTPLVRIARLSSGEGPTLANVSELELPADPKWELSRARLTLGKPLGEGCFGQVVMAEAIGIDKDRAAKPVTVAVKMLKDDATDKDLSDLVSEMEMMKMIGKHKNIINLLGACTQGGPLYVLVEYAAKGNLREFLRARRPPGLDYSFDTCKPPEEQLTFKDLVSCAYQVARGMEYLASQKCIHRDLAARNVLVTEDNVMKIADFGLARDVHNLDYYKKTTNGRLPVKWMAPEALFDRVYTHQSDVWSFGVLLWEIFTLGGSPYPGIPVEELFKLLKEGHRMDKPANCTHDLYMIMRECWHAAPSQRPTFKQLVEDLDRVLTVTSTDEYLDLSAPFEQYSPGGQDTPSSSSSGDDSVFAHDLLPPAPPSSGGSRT
T1 sequence (P22607 whole entry V555M, the tested form may be a part): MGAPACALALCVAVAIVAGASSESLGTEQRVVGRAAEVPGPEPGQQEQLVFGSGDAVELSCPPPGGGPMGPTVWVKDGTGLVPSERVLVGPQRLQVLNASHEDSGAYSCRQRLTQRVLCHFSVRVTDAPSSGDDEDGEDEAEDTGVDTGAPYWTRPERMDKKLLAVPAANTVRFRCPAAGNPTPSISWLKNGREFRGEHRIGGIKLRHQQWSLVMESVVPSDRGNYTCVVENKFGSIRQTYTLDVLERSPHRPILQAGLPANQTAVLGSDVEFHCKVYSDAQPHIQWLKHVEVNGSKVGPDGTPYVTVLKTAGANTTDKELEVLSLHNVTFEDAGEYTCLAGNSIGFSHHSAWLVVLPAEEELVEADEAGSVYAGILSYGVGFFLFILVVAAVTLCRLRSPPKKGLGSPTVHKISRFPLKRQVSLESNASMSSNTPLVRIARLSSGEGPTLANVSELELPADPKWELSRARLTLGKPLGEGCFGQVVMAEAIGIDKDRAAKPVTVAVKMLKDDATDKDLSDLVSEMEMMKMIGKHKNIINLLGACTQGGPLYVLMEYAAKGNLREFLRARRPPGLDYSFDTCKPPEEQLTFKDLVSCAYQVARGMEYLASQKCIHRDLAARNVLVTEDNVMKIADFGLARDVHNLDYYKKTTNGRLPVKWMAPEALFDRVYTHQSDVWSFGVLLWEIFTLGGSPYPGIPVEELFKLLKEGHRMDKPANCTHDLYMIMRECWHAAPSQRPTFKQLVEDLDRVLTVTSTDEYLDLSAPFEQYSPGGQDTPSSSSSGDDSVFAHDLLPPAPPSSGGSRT

Row | SMILES | GI50 [1] [nM] | IC50 [2] [nM]
1 | C[C@H](Nc1c(-c2nc3ccc(N4CCOCC4)c(F)c3[nH]2)c(=O)[nH]c2ccccc12)c1ccccn1 [Compound 24, (S)-3-(7-fluoro-6-morpholino-1H-benzo[d]imidazol-2-yl)-4-((1-(pyridin-2-yl)ethyl)-amino)quinolin-2(1H)-one] | 39.4 | 2.18
2 | C[C@H](Nc1c(-c2nc3ccc(N4CCOCC4)cc3[nH]2)c(=O)[nH]c2ccccc12)c1ncccn1 [Compound 2, (S)-3-(6-morpholino-1H-benzo[d]imidazol-2-yl)-4-((1-(pyrimidin-2-yl)ethyl)amino)-quinolin-2(1H)-one] | 4.89 | 0.337
3 | C[C@@H]1CN(c2ccc3nc(-c4c(N[C@@H](C)c5ccccn5)c5ccccc5[nH]c4=O)[nH]c3c2)C[C@@H](C)O1 [Compound 21, 3-(6-((2R,6R)-2,6-dimethylmorpholino)-1H-benzo[d]imidazol-2-yl)-4-(((S)-1-(pyridin-2-yl)ethyl)amino)quinolin-2(1H)-one] | 48.8 | 5.04
4 | C[C@@H]1CN(c2ccc3nc(-c4c(N[C@@H](C)c5ccccn5)c5ccccc5[nH]c4=O)[nH]c3c2)C[C@H](C)O1 [Compound 4, 3-(6-((2S,6R)-2,6-dimethylmorpholino)-1H-benzo[d]imidazol-2-yl)-4-(((S)-1-(pyridin-2-yl)ethyl)amino)quinolin-2(1H)-one] | 42.7 | 2.59
